Assay results published in patent US20100292334A1, “N-ACYLHYDRAZONE DERIVATIVES USEFUL AS MODULATORS OF NICOTINIC ACETYLCHOLINE RECEPTORS” (NeuroSearch A/S, priority 2007, published 2010).

How the values were obtained:
[1] = biological target: T1, wild-type nAChR α7 receptors (Homo sapiens, UniProt P36544); experiment: Positive modulation of nAChR α7 receptors expressed in Xenopus laevis oocytes, two-electrode voltage clamp; assay type: cell-based
T1 construct: expressed in transfected cells; host or cells: Xenopus laevis oocytes
T1 sequence (P36544 23-502): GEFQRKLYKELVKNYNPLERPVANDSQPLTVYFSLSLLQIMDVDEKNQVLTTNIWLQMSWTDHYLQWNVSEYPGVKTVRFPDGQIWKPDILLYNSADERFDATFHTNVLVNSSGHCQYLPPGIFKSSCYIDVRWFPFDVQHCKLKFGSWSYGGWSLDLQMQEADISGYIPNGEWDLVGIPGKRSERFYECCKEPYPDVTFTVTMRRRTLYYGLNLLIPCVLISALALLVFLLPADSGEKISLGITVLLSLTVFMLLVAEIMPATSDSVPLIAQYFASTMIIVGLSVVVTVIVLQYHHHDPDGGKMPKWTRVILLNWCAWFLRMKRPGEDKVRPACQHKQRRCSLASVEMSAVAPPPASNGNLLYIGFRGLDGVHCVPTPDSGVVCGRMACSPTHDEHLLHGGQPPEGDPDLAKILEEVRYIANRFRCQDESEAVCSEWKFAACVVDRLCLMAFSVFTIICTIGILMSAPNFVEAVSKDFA
Method: In this example the positive modulation of wild-type nAChR α7 receptors by Compound 3 (i.e. 4-Hydroxy-3-methoxy-benzoic acid [3-methyl-4-oxo-4H-naphthalen-(1E)-ylidene]-hydrazide; FIGS. 1A and 1B) was determined using nAChR α7 receptors heterologously expressed in Xenopus laevis oocytes.
The electrical current through the nAChR α7 channel was measured using conventional two-electrode voltage clamp and nAChR α7 currents were activated by applying pulses of agonist-containing solution onto the nAChR α7 expressing oocyte.
In brief, the oocytes were placed in a recording chambers and continuously super-fused with an Oocyte Ringer (OR) solution containing 90 mM NaCl, 2.5 mM KCl, 2.5 mM CaCl2, 1 mM MgCl2 and 5 mM HEPES (pH adjusted to 7.4). The oocytes were clamped at −60 mV and currents were induced by applying 20 s pulses of 100 μM acetylcholine dissolved in OR. The intervals between the acetylcholine applications were 5 minutes, during which the oocytes were washed with OR. The first three applications were control applications to insure a constant response level of 100 μM acetylcholine.
The positive modulation in the presence of Compound 3 was calculated as (test-control)/control*100% and the concentration response curve for this positive modulation was fitted to the sigmoidal logistic equation: I=Imax/(1+(EC50/[compound])n), where Imax represents the maximal modulation of the control response, EC50 is the concentration causing a half maximal response, and n is the slope coefficient.

SMILES | melting point | effect on the acetylcholine-induced current amplitude ([1]; 0.01-31.6 μM applied 30 s before and during 100 μM acetylcholine) | Imax (maximal modulation of the control response) ([1]; Xenopus laevis oocytes clamped at −60 mV, 100 μM acetylcholine, (test-control)/control*100%, fitted maximum) | EC50 ([1]; Xenopus laevis oocytes clamped at −60 mV, currents induced by 100 μM acetylcholine, compound 0.01-31.6 μM applied 30 s before and during acetylcholine, read-out: EC50 (concentration causing a half maximal response) of positive modulation)
CC(=O)Nc1ccc(C(=O)N/N=C2\C=C(C)C(=O)c3ccccc32)cc1 [Compound 5, N-{-4-[3-Methyl-4-oxo-4H-naphthalen-(1E)-ylidene-hydrazinocarbonyl]-phenyl}-acetamide] | 280.5 to 280.8 °C |  |  | 
COc1ccc(C(=O)N/N=C2\C=C(C)C(=O)c3ccccc32)cc1 [Compound 2, 4-Methoxy-benzoic acid [3-methyl-4-oxo-4H-naphthalen-(1E)-ylidene]-hydrazide] | 252.9 to 253.4 °C |  |  | 
CC1=C/C(=N/NC(=O)c2ccc(C#N)cc2)c2ccccc2C1=O [Compound 6, 4-Cyano-benzoic acid [3-methyl-4-oxo-4H-naphthalen-(1Z)-ylidene]-hydrazide] | 290.3 to 292.7 °C |  |  | 
COc1cc(C(=O)N/N=C2\C=C(C)C(=O)c3ccccc32)ccc1O [Compound 3, 4-Hydroxy-3-methoxy-benzoic acid [3-methyl-4-oxo-4H-naphthalen-(1E)-ylidene]-hydrazide] | 254.8 to 255.6 °C | robust increase | 98% | 0.49 µM
CC1=C/C(=N\NC(=O)c2ccc3[nH]ccc3c2)c2ccccc2C1=O [Compound 4, 1H-Indole-5-carboxylic acid [3-methyl-4-oxo-4H-naphthalen-(1E)-ylidene]-hydrazide] | 251.9 to 252.9 °C |  |  | 
CC1=C/C(=N\NC(=O)c2ccc(O)cc2)c2ccccc2C1=O [Compound 1, 4-Hydroxy-benzoic acid [3-methyl-4-oxo-4H-naphthalen-(1E)-ylidene]-hydrazide] | 274.3 to 275.7 °C |  |  | 
